Data as given in US9056067B2, “Pharmaceutical composition for enhancing immunity, and extract of Poria” (Sinphar Pharmaceutical Co., Ltd., priority 2003, dated 2015).

How the values were obtained:
spleen cells = experiment: Spleen cell growth (MTT assay) after oral administration; type: in vivo, mice
Protocol: BALB/c male mice, 6-8 weeks old, were used throughout the experiment. The animals were purchased from National Laboratory Animal Center, Taipei, Taiwan. The mice were housed in the Individual Ventilation Cage System, which provided an environment of Specific Pyrogen-Free. The facilities had 12-h day/night rhythm, 24-26° C. and 30-70% humidity in air. Mice were fed autoclaved water and rodent chow, and the bedding was sterilized by autoclave also. The feedstock purchased from animal center of National Taiwan University composed of crude proteins (>23.0%), crude fat (>4.5%), crude fiber (<6.0%), ash (<8.0%), added minerals (<3.0%) and water (<12%). After transport, the mice were allowed to rest for two weeks before the experiments were started.
(§1) […] […] The control group was the mice feeding with an equal volume of saline (0.85% of NaCl). Mice were sacrificed at day five, and both the serum and spleen cells were collected. The sera were subsequently used to measure the concentration of IgG, IgM and IgA. The spleen cells were plated onto a 100 mm diameter culture plate and incubated at 37° C. for three hours. The non-adherent cells containing T-lymphocytes, B-lymphocytes and NK cells were collected and properly diluted as described in each assay.
The dry powder of PCM, PCM-K1, K-2, K-3 and K4 were suspended in sterile water, followed by sonication to break down the large particle. The suspension of fine particles was used to feed the animals.
(§2) The mouse to be sacrificed was cervical dislocated and sterilized with 70% ethanol. The cardiac punctuation was performed first to withdraw the blood. After the haemagglutination, the blood sample was subjected to centrifugation and the serum was collect. For isolation of spleen cells, the peritoneum was opened to remove the spleen. The fresh spleen was transferred to a culture plate containing 10 ml of RPMI-1640 culture medium. The spleen was then ground over a fine mesh to release the spleen cells. The spleen cells suspending in the medium were then removed and transferred to a 50-ml conical centrifuge tube. The tube was subjected to centrifugation at 1300 rpm for 10 min. The supernatant was discarded and the pellet was re-suspended in 1 ml of cold RBC lysing buffer containing EDTA-NH4Cl. The cells were incubated at room temperature for 10 min, followed by washing the cells three times with culture medium by centrifugation. The spleen cells were plated onto a 100 mm diameter culture plate and incubated at 37° C. for three hours. The non-adherent cells containing T-lymphocytes, B-lymphocytes and NK cells were collected and properly diluted as described in each assay.
MTT assay is the method routinely used for estimating the viable cell number and viability of the cultured cells. The basic principle is that the only mitochondria in a viable cells contain biologically activated oxido-reductive enzymes. The enzymes interact with MTT reagents to convert the chemical into a relatively insoluble blue crystal. The crystal is then solubilized in an acidic isopropanol and the absorbence at 570 nm in each well was read using an ELISA reader (EL311, BioTek, VT). Briefly, the spleen cells suspended in a medium containing RPMI 1640 supplemented with 10% fetal bovine serum (FBS), 2 mM L-glutamine, antibiotics and 1 μg/ml concanavalin A (Con A) were cultured in the 96-well flat-bottom plate (5×10^5 cells/100 μl/well) for 5 days. MTT assay was performed at day 3, 4 and 5. MTT tetrazolium (3-(4-5-dimethylthiazol-2-yl)-2,5-diphenyltertrazolium bromide) (5 mg/ml in phosphate-buffered saline) (Sigma Chemical, St. Louis, Mo.) was added to the spleen cells (20 μl MTT per 100 μl cells), and plates were incubated at 37° C. for 4 h. Acid-isopropanol (100 μl of 0.04 NHCL in isopropanol) was added to all wells and mixed completely to dissolve the dark blue crystals. After 20 minutes at room temperature to ensure that all crystals were dissolved, the plates were read on an EIA reader at 570 nm.

IgG = IgG secretion by spleen cells in vitro (LPS, ELISA) after oral administration; type: in vivo, mice
Protocol: as §1, §2
An ELISA was performed in our study to measure the immunoglobulin concentration. Briefly, the spleen cells (5×10^5 cells/ml) were cultured in a medium containing RPMI 1640 supplemented with 10% fetal bovine serum (FBS), 2 mM L-glutamine, antibiotics and 5 μg/ml lipopolysaccharide (LPS; 1 μg/10^5 cells) for 5 days. LPS is a polyclonal activator of B lymphocyte. Culture spleen cell supernatants were collected at day 3, 4 and 5. IgA, IgG and IgM concentrations were measured using a sandwich ELISA technique.
A 96-well microtiter plate (Nunc-Immuno Plate, MaxiSorp, Nunc, Denmark) was precoated with 100 ng/well of capture antibodies at 4° C. overnight. The capture antibody was a rabbit anti-mouse IgG+IgA+IgM antibody (Zymed Laboratory, CA). The plate was washed with PBS-0.05% Tween 20 solution and blocked with PBS-1% gelatin. After the blocking, the properly diluted samples (1/10^5 diluted) and standard IgG ranged from 0.25 μg/ml to 0.039 μg/ml were added (100 μl/well). The plate was then incubated at 37° C. for 2 h. At the end of incubation, HRP-conjugated goat anti-mouse IgG (1:2,000 diluted; anti-whole IgG molecule; Zymed Laboratory, CA) was added (100 μl/well). After 1 h of incubation at 37° C., the color was developed using a substrate solution containing 0.1 M citrate buffer, pH 4.5, 0.03% H2O2 and 0.1% of o-phenylenediamine. The absorbence at 490 nm in each well was read using an ELISA reader (EL311, BioTek, VT), and the data was analyzed using log-logit model.

[1] = oral 10 mg/kg/day for four days
[2] = oral 20 mg/kg/day for four days

What does the source list for C=C(CC[C@@H](C(=O)O)[C@H]1[C@H](O)C[C@@]2(C)C3=CC[C@H]4C(C)(C)C(=O)CC[C@]4(C)C3=CC[C@]12C)C(C)C [K3]?
Spleen cell growth, absorbance at 570 nm (MTT assay), incubation day 3 (spleen cells; oral 5 mg/kg/day for four days): 1.154 ± 0.172; Spleen cell growth, absorbance at 570 nm (MTT assay), incubation day 4 (spleen cells; oral 5 mg/kg/day for four days): 0.841 ± 0.160; Spleen cell growth, absorbance at 570 nm (MTT assay), incubation day 5 (spleen cells; oral 5 mg/kg/day for four days): 0.864 ± 0.194; Spleen cell growth, absorbance at 570 nm (MTT assay), incubation day 3 (spleen cells; [1]): 1.020 ± 0.090; Spleen cell growth, absorbance at 570 nm (MTT assay), incubation day 4 (spleen cells; [1]): 0.900 ± 0.193; Spleen cell growth, absorbance at 570 nm (MTT assay), incubation day 5 (spleen cells; [1]): 0.957 ± 0.200; Spleen cell growth, absorbance at 570 nm (MTT assay), incubation day 3 (spleen cells; [2]): 1.103 ± 0.081; Spleen cell growth, absorbance at 570 nm (MTT assay), incubation day 4 (spleen cells; [2]): 1.068 ± 0.132; Spleen cell growth, absorbance at 570 nm (MTT assay), incubation day 5 (spleen cells; [2]): 0.943 ± 0.159; Effect on IgG secretion by spleen cells (in words) (IgG; oral): significantly suppressed; IgG secretion by spleen cell, incubation day 3 (IgG; oral 5 mg/kg/day for four days): 3.85 ± 0.73; IgG secretion by spleen cell, incubation day 4 (IgG; oral 5 mg/kg/day for four days): 3.43 ± 0.40; IgG secretion by spleen cell, incubation day 5 (IgG; oral 5 mg/kg/day for four days): 4.46 ± 0.95; IgG secretion by spleen cell, incubation day 3 (IgG; [1]): 3.18 ± 0.55; IgG secretion by spleen cell, incubation day 4 (IgG; [1]): 3.16 ± 0.62; IgG secretion by spleen cell, incubation day 5 (IgG; [1]): 3.48 ± 0.43; IgG secretion by spleen cell, incubation day 3 (IgG; [2]): 6.12 ± 0.70; IgG secretion by spleen cell, incubation day 4 (IgG; [2]): 7.10 ± 1.39; IgG secretion by spleen cell, incubation day 5 (IgG; [2]): 8.56 ± 1.34

C=C(CCC(C(=O)O)C1C(O)CC2(C)C3=CCC4C(C)(CCC(O)C4(C)C)C3=CCC12C)C(C)C (stereo not shown) [K4] was tested. Which “Spleen cell growth, absorbance at 570 nm (MTT assay), incubation day 3” value (from here on “Spleen cell growth … incubation day 3”) (spleen cells; oral 5 mg/kg/day for four days) did it give?
Its value is 0.949 ± 0.101.

And the “Spleen cell growth, absorbance at 570 nm (MTT assay), incubation day 4” value (“Spleen cell growth … incubation day 4” below) (spleen cells; oral 5 mg/kg/day for four days)?
Its value is 0.981 ± 0.087.

And the “Spleen cell growth, absorbance at 570 nm (MTT assay), incubation day 5” value (shortened to “Spleen cell growth … incubation day 5”) (spleen cells; oral 5 mg/kg/day for four days)?
Its value is 0.862 ± 0.085.

And the “Spleen cell growth … incubation day 3” value (spleen cells; [1])?
Its value is 1.198 ± 0.101.

And the “Spleen cell growth … incubation day 4” value (spleen cells; [1])?
The value was 1.273 ± 0.147.

And the “Spleen cell growth … incubation day 5” value (spleen cells; [1])?
Its value is 1.177 ± 0.078.

And the “Spleen cell growth … incubation day 3” value (spleen cells; [2])?
The value was 1.233 ± 0.040.

And the “Spleen cell growth … incubation day 4” value (spleen cells; [2])?
Its value is 1.263 ± 0.041.

And the “Spleen cell growth … incubation day 5” value (spleen cells; [2])?
Its value is 1.061 ± 0.124.

And the “IgG secretion by spleen cell, incubation day 3” value (“IgG secretion … incubation day 3” for short) (IgG; oral 5 mg/kg/day for four days)?
Its value is 12.55 ± 3.08.

What about the “IgG secretion by spleen cell, incubation day 4” value (“IgG secretion … incubation day 4” for short) (IgG; oral 5 mg/kg/day for four days) of the same compound?
The value was 12.99 ± 0.86.

And the “IgG secretion by spleen cell, incubation day 5” value (“IgG secretion … incubation day 5” for short) (IgG; oral 5 mg/kg/day for four days)?
Its value is 18.29 ± 0.92.

What about the “IgG secretion … incubation day 3” value (IgG; [1]) of the same compound?
Its value is 6.54 ± 1.43.

And the “IgG secretion … incubation day 4” value (IgG; [1])?
The value was 15.15 ± 5.16.

What about the “IgG secretion … incubation day 5” value (IgG; [1]) of the same compound?
Its value is 22.59 ± 5.35.

And the “IgG secretion … incubation day 3” value (IgG; [2])?
Its value is 21.23 ± 3.19.

What about the “IgG secretion … incubation day 4” value (IgG; [2]) of the same compound?
Its value is 19.11 ± 4.23.

And the “IgG secretion … incubation day 5” value (IgG; [2])?
Its value is 22.56 ± 3.84.
